Results reported in patent publication US10450297B2, “Sulfonyl amide derivatives for the treatment of abnormal cell growth” (Pfizer, Inc., priority 2007, dated 2019).

These compounds were tested against FAK kinase (catalytic construct FAK(410-689)) (Homo sapiens (Human), UniProt Q05397) (assay: FAKcd kinase ELISA (inhibition of poly-glu-tyr phosphorylation by FAK(410-689))). Details: 50 μM final ATP.
Type: biochemical

FAK kinase (catalytic construct FAK(410-689)), sequence (Q05397 410-689): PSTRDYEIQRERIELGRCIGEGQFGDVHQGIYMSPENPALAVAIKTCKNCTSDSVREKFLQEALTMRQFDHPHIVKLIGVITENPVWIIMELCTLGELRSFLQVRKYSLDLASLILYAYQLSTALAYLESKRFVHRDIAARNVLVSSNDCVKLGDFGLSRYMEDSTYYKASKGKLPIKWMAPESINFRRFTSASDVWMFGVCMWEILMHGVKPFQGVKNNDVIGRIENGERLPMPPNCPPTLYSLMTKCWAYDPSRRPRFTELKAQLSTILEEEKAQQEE

IC50 [nM]	Structure (SMILES)
1.11	CN(c1ncccc1CNc1nc(Nc2ccc(C(=O)NCCO)cc2)ncc1C(F)(F)F)S(C)(=O)=O [Compound 244, N-(2-hydroxyethyl)-4-({4-[({2-[methyl(methylsulfonyl)amino]pyridin-3-yl}methyl)amino]-5-(trifluoromethyl)pyrimidin-2-yl}amino)benzamide]
< 0.595	CN(c1ncccc1CNc1nc(Nc2ccc(CNCC(C)(C)O)cc2)ncc1C(F)(F)F)S(C)(=O)=O [Compound 413, N-{3-[({2-[(4-{[(2-hydroxy-2-methylpropyl)amino]methyl}phenyl)amino]-5-(trifluoromethyl)pyrimidin-4-yl}amino)methyl]pyridin-2-yl}-N-methylmethanesulfonamide]
0.75	CC(O)c1ccc(Nc2ncc(C(F)(F)F)c(NCc3nccnc3N(C)S(C)(=O)=O)n2)cc1 (centres unmarked) [Compound 330, N-[3-({[2-{[4-(1-hydroxyethyl)phenyl]amino}-5-(trifluoromethyl)pyrimidin-4-yl]amino}methyl)pyrazin-2-yl]-N-methylmethane-sulfonamide]
2.38	CN(C)C(=O)c1ccc(Nc2ncc(C(F)(F)F)c(NCc3cccnc3N(C)S(C)(=O)=O)n2)cc1 [Compound 230, N,N-dimethyl-4-({4-[({2-[methyl(methylsulfonyl)amino]pyridin-3-yl}methyl)amino]-5-(trifluoromethyl)pyrimidin-2-yl}amino)benzamide]
1.91	CN(c1ncccc1CNc1nc(Nc2ccc(C(=O)N3CC[C@@H](O)C3)cc2)ncc1C(F)(F)F)S(C)(=O)=O [Compound 249, N-{3-[({2-[(4-{[(3R)-3-hydroxypyrrolidin-1-yl]carbonyl}phenyl)amino]-5-(trifluoromethyl)pyrimidin-4-yl}amino)methyt]pyridin-2-yl}-N-methylmethane-sulfonamide]
188	CN(c1ncccc1CNc1nc(Nc2ccc(C(=O)O)cc2)ncc1C(F)(F)F)S(C)(=O)=O [Compound 42, 4-({4-[({2-[methyl(methylsulfonyl)amino]pyridin-3-yl}methyl)amino]-5-(trifluoromethyl)pyrimidin-2-yl}amino)benzoic acid]
< 0.595	C[C@@H](N)c1ccc(Nc2ncc(C(F)(F)F)c(NCc3ncccc3N(C)S(C)(=O)=O)n2)cc1 [Compound 352, N-[2-({[2-({4-[(1R)-1-aminoethyl]phenyl}amino)-5-(trifluoromethyl)pyrimidin-4-yl]amino}methyl)pyridin-3-yl]-N-methylmethane-sulfonamide]
1.26	CC(=O)c1cccc(Nc2ncc(C(F)(F)F)c(NCc3cccnc3N(C)S(C)(=O)=O)n2)c1 [Compound 312, N-{3-[({2-[(3-acetylphenyl)amino]-5-(trifluoromethyl)pyrimidin-4-yl}amino)methyl]pyridin-2-yl}-N-methylmethane-sulfonamide]
2.17	CN(c1ncccc1CNc1nc(Nc2cccc(C(=O)NC3CCC3)c2)ncc1C(F)(F)F)S(C)(=O)=O [Compound 185, N-cyclobutyl-3-({4-[({2-[methyl(methylsulfonyl)amino]pyridin-3-yl}methyl)amino]-5-(trifluoromethyl)pyrimidin-2-yl}amino)benzamide]
0.88	CN(CCO)C(=O)c1cccc(Nc2ncc(C(F)(F)F)c(NCc3cccnc3N(C)S(C)(=O)=O)n2)c1 [Compound 115, N-(2-hydroxyethyl}-N-methyl-3-({4-[({2-[methyl(methylsulfonyl)amino]pyridin-3-yl)methyl)amino]-5-(trifluoromethyl)pyrimidin-2-yl}amino)benzamide]
1.64	CN(c1ncccc1CNc1nc(Nc2cccc(C#N)c2)ncc1C(F)(F)F)S(C)(=O)=O [Compound 286, N-{3-[({2-[(3-cyanophenyl)amino]-5-(trifluoromethyl)pyrimidin-4-yl}amino)methyl]pyridin-2-yl}-N-methylmethanesulfonamide]
337	CS(=O)(=O)c1cccc(CNc2nc(Nc3ccc(S(C)(=O)=O)nc3)ncc2C(F)(F)F)c1 [Compound 24, N-4-[3-(methylsulfonyl)benzyl]-N-2-[6-(rnethylsulfonyl)pyridin-3-yl]-5-(trifluoromethyl)-pyrimidine-2,4-diamine]
188	CN(c1ncccc1CNc1nc(NC2CCN(S(C)(=O)=O)CC2)ncc1C(F)(F)F)S(C)(=O)=O [Compound 36, N-methyl-N-[3-({[2-{[1-(methylsulfonyl)piperidin-4-yl]amino}-5-(trifluoromethyl)pyrimidin-4-yl]amino}methyl)pyridin-2-yl]methanesulfonamide]
3.35	CN(c1ncccc1CNc1nc(Nc2cccc(C(=O)N3C[C@@H](F)[C@H](F)C3)c2)ncc1C(F)(F)F)S(C)(=O)=O [Compound 153, N-{3-[({2-[(3-{[(3R,4R)-3,4-difluoropyrrolidin-1-yl]carbonyl}phenyl)amino)-5-(trifluoromethyl)pyrimidin-4-yl}amino)methyl]pyridin-2-yl}-N-methylmethane-sulfonamide]
21.5	CN(c1ncccc1CNc1nc(Nc2cccc(C(=O)Nc3cccc(C(F)(F)F)c3)c2)ncc1C(F)(F)F)S(C)(=O)=O [Compound 88, 3-({4-[({2-[methyl(methylsulfonyl)amino]pyridin-3-yl}methyl)amino]-5-(trifluoromethyl)pyrimidin-2-yl}amino)-N-[3-(trifluoromethyl)phenyl]benzamide]
0.59	COC(=O)c1ccc(Nc2ncc(C(F)(F)F)c(NCc3cccnc3N(C)S(C)(=O)=O)n2)cc1 [Compound 40, methyl 4-({4-[({2-[methyl(methylsulfonyl)amino]pyridin-3-yl}methyl)amino]-5-(trifluoromethyl)pyrimidin-2-yl}amino)benzoate]
1.13	C[C@H]1COCCN1C(=O)c1ccc(Nc2ncc(C(F)(F)F)c(NCc3cccnc3N(C)S(C)(=O)=O)n2)cc1 [Compound 261, N-methyl-N-{3-[({2-[(4-{[(3S)-3-rnethylmorpholin-4-yl]carbonyl}phenyl)amino]-5-(trifluoromethyl)pyrimidin-4-yl}amino)methyl]pyridin-2-yl}methanesulfonamide]
< 0.595	CN(c1ncccc1CNc1nc(Nc2ccc(CNCCO)cc2)ncc1C(F)(F)F)S(C)(=O)=O [Compound 383, N-{3-[({2-[(4-{[(2-hydroxyethyl)amino]methyl}phenyl)amino]-5-(trifluoromethyl)pyrimidin-4-yl}amino)methyl]pyridin-2-yl}-N-methylmethane-sulfonamide]
8.15	CN(c1cccc(CNc2nc(Nc3ccc(C(N)=O)nc3)ncc2C(F)(F)F)c1)S(C)(=O)=O [Compound 376, 5-{[4-({3-[methyl(methylsulfonyl)amino]benzyl}amino)-5-(trifluoromethyl)pyrimidin-2-yl]amino}pyridine-2-carboxamide]
0.6	CN(c1ncccc1CNc1nc(Nc2ccc(CNC(N)=O)cc2)ncc1C(F)(F)F)S(C)(=O)=O [Compound 216, N-{3-[({2-[(4-{[(aminocarbonyl)amino]-methyl}phenyl)amino]-5-(trifluoromethyl)pyrimidin-4-yl}amino)methyl]pyridin-2-yl}-N-methylmethane-sulfonamide]
0.6	CS(=O)(=O)Nc1ccccc1CNc1nc(Nc2ccc(C(N)=O)cc2)ncc1C(F)(F)F [Compound 111, 4-{[4-({2-[(methylsulfonyl)amino]benzyl}amino)-5-(trifluoromethyl)pyrimidin-2-yl]amino}benzamide]
0.6	CC(=O)NCc1ccc(Nc2ncc(C(F)(F)F)c(NCc3cccnc3N(C)S(C)(=O)=O)n2)cc1 [Example 5, N-(4-(4-((2-(N-methylmethan-5-ylsulfonamido)pyridin-3-yl)methylamino)-5-(trifluoromethyl)pyrimidin-2-ylamino)benzyl)acetamide]
8.93	CN(c1ncccc1CNc1nc(Nc2ccc(C(N)=O)cn2)ncc1C(F)(F)F)S(C)(=O)=O [Compound 59, 6-({4-[({2-[methyl(methylsulfonyl)amino]pyridin-3-yl}methyl)amino]-5-(trifluoromethyl)pyrimidin-2-yl}amino)nicotinamide]
0.59	COc1cc(C(N)=O)ccc1Nc1ncc(C(F)(F)F)c(NCc2ccc(C)nc2N(C)S(C)(=O)=O)n1 [Compound 49, 3-methoxy-4-({4-[({6-methyl-2-[methyl(methylsulfonyl)-amino]pyridin-3-yl}methyl)amino]-5-(trifluoromethyl)pyrirnidin-2-yl}amino)benzamide]
0.6	CN(c1ncccc1CNc1nc(Nc2cccc(CNC(N)=O)c2)ncc1C(F)(F)F)S(C)(=O)=O [Compound 222, N-{3-[({2-[(3-{[(aminocarbonyl)amino]-methyl}phenyl)amino]-5-(trifluoromethyl)pyrimidin-4-yl}amino)methyl]pyridin-2-yl}-N-methylrnethanesulfonamide]
5.8	CCC[C@H](CO)NC(=O)c1ccc(Nc2ncc(C(F)(F)F)c(NCc3cccnc3N(C)S(C)(=O)=O)n2)cc1 [Compound 257, N-[(1R)-1-(hydroxymethyl)butyl]-4-({4-[({2-[methyl(methylsulfonyl)amino]pyridin-3-yl}methyl)amino]-5-(trifluoromethyl)pyrimidin-2-yl}amino)benzamide]
188	COCC(=O)N1CCC(Nc2ncc(C(F)(F)F)c(NCc3cccnc3N(C)S(C)(=O)=O)n2)CC1 [Compound 55, N-[3-({[2-{[1-(methoxyacetyl)piperidin-4-yl]amino}-5-(trifluoromethyl)pyrimidin-4-yl]amino}methyl)pyridin-2-yl]-N-methylmethane-sulfonamide]
0.59	Cc1cc(N(C)S(C)(=O)=O)c(CNc2nc(Nc3ccccc3)ncc2C(F)(F)F)cn1 [Compound 80, N-[5-({[2-anilino-5-(trifluoromethyl)pyrimidin-4-yl]amino}methyl)-2-methylpyridin-4-yl]-N-methylmethanesulfonamide]
2.62	CN(c1ncccc1CNc1nc(Nc2ccc(C(=O)N3CCC(C)(O)C3)cc2)ncc1C(F)(F)F)S(C)(=O)=O (centres unmarked) [Compound 268, N-[3-({[2-({4-[(3-hydroxy-3-methylpyrrolidin-1 - yl)carbonyl]phenyl}amino)-5-(trifluoromethyl)pyrimidin-4-yl]amino}methyl)pyridin-2-yl]-N-methylmethane-sulfonamide]
